Read-outs that look alike come from different tables or passages of the source.
How the values were obtained:
Human recombinant PTP1B = biological target: T1, Human recombinant PTP1B (Homo sapiens, UniProt P18031); format: biochemical; conditions: read-out: IC50
T1 construct: made in house
T1 sequence (P18031 1-435): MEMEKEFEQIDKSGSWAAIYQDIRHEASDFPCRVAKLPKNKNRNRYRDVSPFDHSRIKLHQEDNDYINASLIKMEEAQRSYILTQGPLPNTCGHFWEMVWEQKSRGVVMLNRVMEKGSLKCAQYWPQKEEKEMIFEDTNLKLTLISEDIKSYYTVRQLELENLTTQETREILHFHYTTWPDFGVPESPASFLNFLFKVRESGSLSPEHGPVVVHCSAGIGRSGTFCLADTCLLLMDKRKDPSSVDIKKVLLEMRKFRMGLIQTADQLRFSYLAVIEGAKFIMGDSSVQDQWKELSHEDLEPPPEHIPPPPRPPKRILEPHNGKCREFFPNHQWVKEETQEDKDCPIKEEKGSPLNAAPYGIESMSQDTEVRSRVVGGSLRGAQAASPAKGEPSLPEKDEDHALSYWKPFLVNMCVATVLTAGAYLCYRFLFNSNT

[1] = test system: rat hepatic microsomal PTPases; conditions: PTPase activity, compound at 50 μM
diabetic (ob/ob) mice = assay: Blood glucose lowering activity in diabetic (ob/ob) mice; format: in vivo, mouse; conditions: for change in vivo at 75 mg/kg / change in vivo at 25 mg/kg / change in vivo at 100 mg/kg / change in vivo at 95 mg/kg / change in vivo at 10 mg/kg / change in vivo at 50 mg/kg: Mus musculus, po
Procedure: The blood glucose lowering activity of representative compounds of this invention were determined in an in vivo standard procedure using diabetic (ob/ob) mice. The procedures used and results obtained are briefly described below. The non-insulin dependent diabetic (NIDDM) syndrome can be typically characterizes by obesity, hyperglycemia, abnormal insulin secretion, hyperinsulinemia and insulin resistance. […] In each test procedure, mice [Male or female ob/ob (C57 B1/6J) and their lean litermates (ob+ or +/+, Jackson Laboratories) ages 2 to 5 months (10 to 65 g)] of a similar age were randomized according to body weight into 4 groups of 10 mice. The mice were housed 5 per cage and are maintained on normal rodent chow with water ad libitum. Mice received test compound daily by gavage (suspended in 0.5 ml of 0.5% methyl cellulose); dissolved in the drinking water; or admixed in the diet. […] The dose is calculated based on the fed weekly body weight and is expressed as active moiety. […] Control mice received vehicle only. On the morning of Day 4, 7 or 14 two drops of blood (approximetly 50 ul) were collected into sodium fluoride containing tubes either from the tail vein or after decapitation. For those studies in which the compound was administered daily by gavage the blood samples were collected two hours after compound administration. The plasma was isolated by centrifugation and the concentration of glucose is measured enzymatically on an Abbott V. P. Analyzer. […] Analysis of variance followed by Dunett's Comparison Test (one-tailed) are used to estimate the significant difference between the plasma glucose values from the control group and the individual compound treated groups (CMS SAS Release 5.18).

[2] = 96 h, ob/ob mice, plasma glucose Day 4, 7 or 14, read-out: % Change Glucose from Vehicle
[3] = ob/ob mice, read-out: % Change Insulin from Vehicle
[4] = 96 h, ob/ob mice, dose 25 mg/Kg, plasma glucose Day 4, 7 or 14, read-out: % Change Glucose from Vehicle
[5] = ob/ob mice, dose 25 mg/Kg, read-out: % Change Insulin from Vehicle
[6] = 96 h, ob/ob mice, dose 100 mg/Kg, plasma glucose Day 4, 7 or 14, read-out: % Change Glucose from Vehicle
[7] = ob/ob mice, dose 100 mg/Kg, read-out: % Change Insulin from Vehicle

| IC50 (Human recombinant PTP1B) [nM] | % Change from Control [1] [%] | Structure (SMILES) | change in vivo at 25 mg/kg (diabetic (ob/ob) mice; [4]) [%] | change in vivo at 25 mg/kg (diabetic (ob/ob) mice; [5]) [%] | change in vivo at 100 mg/kg (diabetic (ob/ob) mice; [6]) [%] | further results |
| --- | --- | --- | --- | --- | --- | --- |
| 82 | -87.44 | CCCCC(Oc1c(Br)cc(-c2c3ccccc3c(Br)c3sc4ccccc4c23)cc1Br)C(=O)O (centres unmarked) [Example 123, 2-[2,6-Dibromo-4-(6-bromo-benzo[b]naphtho[2,3-d]thiophen-11-yl)-phenoxy]-hexanoic acid] |  |  |  | change in vivo at 75 mg/kg (diabetic (ob/ob) mice; [2]): -24%; change in vivo at 75 mg/kg (diabetic (ob/ob) mice; [3]): -40.9% |
| 74 | -29.03 | Oc1cc(-c2c3ccccc3c(Br)c3sc4ccccc4c23)cc(Br)c1O [Example 70, 3-Bromo-5-(6-bromo-benzo[b]naphtho[2,3-d]thiophen-11-yl)-benzene-1,2-diol] | -28.6 | 45.7 |  |  |
| 209 | -59.75 | C[C@@H](Oc1c(Br)cc(-c2c3ccccc3c(I)c3sc4ccccc4c23)cc1Br)C(=O)O [Example 135, (R)-2-[2,6-Dibromo-4-(6-iodo-benzo[b]naphtho[2,3-d]thiophen-11-yl]-phenoxy]-propionic acid] | -15.8 | -57.4 |  |  |
| 636 | -69.13 | Cc1cc(-c2c3ccccc3c(C)c3sc4ccccc4c23)cc(C)c1O[C@H](Cc1ccccc1)C(=O)O [Example 138, (R)-2-[2,6-Dimethyl-4-(6-methyl-benzo[b]naphtho[2,3-d]thiophen-11-yl)-phenoxy]-3-phenyl-propionic acid] | -13.8 | -91.9 |  |  |
| 217 | -79.35 | COc1cc(-c2c3ccccc3c(Br)c3sc4ccccc4c23)cc(Br)c1O[C@H](Cc1ccccc1)C(=O)O [Example 194, (R)-2-[2-Bromo-4-(6-bromo-benzo[b]naphtho[2,3-d]thiophen-11-yl)-6-methoxy-phenoxy]-3-phenyl-propionic acid] | -32 |  |  |  |
| 61 | -64.89 | CC(C)c1cc(-c2c3ccccc3c(Br)c3sc4ccccc4c23)cc(C(C)C)c1O[C@H](Cc1ccccc1)C(=O)O [Example 139, (2R)-2-[4-(6-Bromo-benzo[b]naphtho[2,3-d]thiophen-11-yl)-2,6-diisopropyl-phenoxy)-3-phenyl-propionic acid] | -18.5 | -22 |  |  |
| 45 | -101.01 | O=C(O)[C@@H](CCc1ccccc1)Oc1c(Br)cc(-c2c3ccccc3c(Br)c3sc4ccccc4c23)cc1Br [Example 113] | -0.5 | -55.8 |  |  |
| 386 | -82.58 | O=C(O)COc1c(Br)cc(-c2c3ccccc3c(Br)c3sc4ccccc4c23)cc1Br [Example 79, [2,6-Dibromo-4-(6-bromo-benzo[b]naphtho[2,3-d]thiophen-11-yl)-phenoxy]-acetic acid] |  |  | -22.6 | % Change Glucose from Vehicle (diabetic (ob/ob) mice; ob/ob mice, dose 100 mg/Kg, plasma glucose Day 4, 7 or 14, 100 mg/kg): -22.60% |
|  |  | CC1(COc2ccc(CC3SC(=O)NC3=O)cc2)CCCCC1 (centres unmarked) [Ciglitazone, 5-(4-(1-methylcyclohexylmethoxy)benzyl)-2,4-dione, reference compound] |  |  | -43 | change in vivo at 100 mg/kg (diabetic (ob/ob) mice; [7]): -39%; lowering in plasma glucose (in words) (diabetic (ob/ob) mice; positive control, 100 mg/kg/day): significant lowering in plasma glucose |
| 25 | -50.94 | O=C(O)[C@@H](Cc1ccccc1)Oc1c(Br)cc(-c2c3ccccc3c(Sc3ccccc3)c3sc4ccccc4c23)cc1Br [Example 128, (R)-2-[2,6-Dibromo-4-(6-phenylsulfanyl-benzo[b]naphtho[2,3-d]thiophen-11-yl)-phenoxy]-3-phenyl-propionic acid] | 3.1 | -38.8 |  |  |
|  | -73.96 | O=C(O)[C@@H](Cc1ccccc1)Oc1c(Br)cc(-c2c3ccccc3c(C(F)(F)F)c3sc4ccccc4c23)cc1Br [Example 125, (R)-2-[2,6-Dibromo-4-(6-trifluoromethyl-benzo[b]naphtho[2,3-d]thiophen-11-yl)-phenoxy]-3-phenyl-propionic acid] |  |  |  | change in vivo at 95 mg/kg (diabetic (ob/ob) mice; [2]): -27.6%; change in vivo at 95 mg/kg (diabetic (ob/ob) mice; [3]): -89.7% |
| 184 | -74.70 | C[C@@H](Oc1c(Br)cc(-c2c3ccccc3c(Br)c3sc4ccccc4c23)cc1Br)C(=O)O [Example 121, (R)-2-[2,6-Dibromo-4-(6-bromo-benzo[b]naphtho[2,3-d]thiophen-11-yl)-phenoxy]-propionic acid] |  |  | -54.6 | change in vivo at 10 mg/kg (diabetic (ob/ob) mice; [2]): 1.37%; change in vivo at 10 mg/kg (diabetic (ob/ob) mice; [3]): -41.8%; change in vivo at 100 mg/kg (diabetic (ob/ob) mice; [7]): -87.8% |
| 61 |  | O=C(O)[C@@H](Cc1ccccc1)Oc1c(Br)cc(-c2c3ccccc3c(Br)c3sc4ccccc4c23)cc1Br [Example 108, (R)-2-[2,6-Dibromo-4-(6-bromo-benzo[b]naphtho[2,3-d]thiophen-11-yl)-phenoxy]-3-phenyl-propionic acid] |  |  | -45.8 | % Change from Control ([1]; 50 µM): -72.94%; change in vivo at 10 mg/kg (diabetic (ob/ob) mice; [2]): -26.1%; change in vivo at 50 mg/kg (diabetic (ob/ob) mice; [2]): -34.8%; change in vivo at 75 mg/kg (diabetic (ob/ob) mice; [2]): -49.7%; change in vivo at 10 mg/kg (diabetic (ob/ob) mice; [3]): -30.3%; change in vivo at 50 mg/kg (diabetic (ob/ob) mice; [3]): -84.8%; change in vivo at 75 mg/kg (diabetic (ob/ob) mice; [3]): -89.6%; change in vivo at 100 mg/kg (diabetic (ob/ob) mice; [7]): -72.6%; % Change Insulin from Vehicle (diabetic (ob/ob) mice; ob/ob mice, dose 25 mg/Kg): -71.03%; % Change Glucose from Vehicle (diabetic (ob/ob) mice; ob/ob mice, dose 25 mg/Kg, plasma glucose Day 4, 7 or 14, 25 mg/kg): -25.66% |
| 1510 | -79.06 | O=C(O)[C@@H](Cc1ccccc1)Oc1ccc(-c2c3ccccc3cc3sc4ccccc4c23)cc1 [Example 117, (R)-2-[4-(Benzo[b]naphtho[2,3-d]thiophen-11-yl)-phenoxy]-3-phenyl-propionicacid] |  |  | -14.5 | change in vivo at 100 mg/kg (diabetic (ob/ob) mice; [7]): -83.8% |
| 298 | -78.77 | COc1c2ccccc2c(-c2cc(Br)c(O[C@H](Cc3ccccc3)C(=O)O)c(Br)c2)c2c1sc1ccccc12 [Example 126, (R)-2-[2,6-Dibromo-4-(6-methoxy-benzo[b]naphtho[2,3-d]thiophen-11-yl)-phenoxy]-3-phenyl-propionic acid] | -28.6 | -62.4 |  |  |
| 1680 | -63.18 | O=C(O)COc1ccc(-c2c3ccccc3c(Br)c3sc4ccccc4c23)cc1 [Example 87] |  |  | -15.8 | change in vivo at 100 mg/kg (diabetic (ob/ob) mice; [7]): -88% |
|  |  | O=C(O)COc1c(-c2ccccc2)cc(-c2c3ccccc3cc3sc4ccccc4c23)cc1-c1ccccc1 [Example 191] | -36.5 | -64.3 |  | change in vivo at 10 mg/kg (diabetic (ob/ob) mice; [2]): -22.8% |
|  | -66.21 | O=C(O)[C@@H](Cc1ccccc1)Oc1c(I)cc(-c2c3ccccc3cc3sc4ccccc4c23)cc1I [Example 131] | -3.63 | -67.5 |  |  |
